Measurements: patent publication US20250206718A1, “NITROGEN-CONTAINING HETEROCYCLIC DERIVATIVE INHIBITOR, PREPARATION METHOD THEREFOR AND USE THEREOF” (SHANGHAI HANSOH BIOMEDICAL CO., LTD., priority 2022, published 2025)

What was measured:
[1] = molecular target: Ba/F3 EGFR Del19/T790M/C797S cells (Homo sapiens, UniProt P00533, T790M/C797S, cells depend on it, form not given); assay: Cell proliferation inhibition (Cell Titer-Glo), Ba/F3 EGFR Del19/T790M/C797S; assay type: cell-based, mouse; settings: 72 hours, CellTiter-Glo, read-out: Ba/F3 EGFR Del19_T790M_C797S IC50
Ba/F3 EGFR Del19/T790M/C797S cells, sequence (P00533 with tags, fused parts or gaps DEL746-750/T790M/C797S, form open): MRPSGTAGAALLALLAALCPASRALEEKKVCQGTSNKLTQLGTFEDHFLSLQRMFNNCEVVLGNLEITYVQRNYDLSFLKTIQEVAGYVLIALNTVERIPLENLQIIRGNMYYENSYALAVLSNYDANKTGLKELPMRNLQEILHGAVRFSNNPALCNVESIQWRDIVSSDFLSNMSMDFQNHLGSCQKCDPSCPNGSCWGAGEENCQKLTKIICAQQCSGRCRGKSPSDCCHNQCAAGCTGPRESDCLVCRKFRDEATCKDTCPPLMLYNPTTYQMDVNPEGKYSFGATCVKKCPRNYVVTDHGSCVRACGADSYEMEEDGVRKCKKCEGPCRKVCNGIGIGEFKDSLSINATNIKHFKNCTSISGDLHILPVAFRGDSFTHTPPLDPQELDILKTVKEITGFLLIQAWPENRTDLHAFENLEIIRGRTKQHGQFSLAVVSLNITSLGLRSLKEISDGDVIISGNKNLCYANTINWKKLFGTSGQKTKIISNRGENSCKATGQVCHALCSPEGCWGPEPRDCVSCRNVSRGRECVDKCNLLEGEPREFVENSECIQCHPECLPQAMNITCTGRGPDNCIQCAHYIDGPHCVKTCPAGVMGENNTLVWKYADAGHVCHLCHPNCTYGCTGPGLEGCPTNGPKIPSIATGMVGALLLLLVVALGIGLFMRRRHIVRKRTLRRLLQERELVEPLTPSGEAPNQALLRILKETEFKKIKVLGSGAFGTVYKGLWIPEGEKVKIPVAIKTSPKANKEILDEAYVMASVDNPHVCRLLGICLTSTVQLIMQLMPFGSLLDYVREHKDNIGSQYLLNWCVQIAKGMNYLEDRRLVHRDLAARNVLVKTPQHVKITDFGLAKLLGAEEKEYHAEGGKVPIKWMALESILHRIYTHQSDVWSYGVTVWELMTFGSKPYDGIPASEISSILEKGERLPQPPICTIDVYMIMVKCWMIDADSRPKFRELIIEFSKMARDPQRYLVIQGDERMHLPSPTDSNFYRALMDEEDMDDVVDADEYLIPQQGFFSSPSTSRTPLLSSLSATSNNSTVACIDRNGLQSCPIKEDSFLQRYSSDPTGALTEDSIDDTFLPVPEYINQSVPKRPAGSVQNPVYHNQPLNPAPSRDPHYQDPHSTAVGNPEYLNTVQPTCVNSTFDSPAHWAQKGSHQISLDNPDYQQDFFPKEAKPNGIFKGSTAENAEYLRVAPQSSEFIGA
From the text: (§1) Experimental objective: The objective of this test example is to test the inhibitory activity of compounds on the proliferation of different EGFR C797S drug-resistant mutant cell lines Ba/F3 EGFR Del19/T790M/C797S, Ba/F3 EGFR L858R/T790M/C797S, and Ba/F3 EGFR Del19/C797S.
(§2) • Ba/F3 EGFR Del19/T790M/C797S cells were purchased from KYinno Biotechnology Co., Ltd.; • Ba/F3 EGFR Del19/C797S cells were purchased from CoBioer Biosciences Co., Ltd.; • Ba/F3 EGFR L858R/T790M/C797S cells were purchased from CoBioer Biosciences Co., Ltd.; • Cell Titer-Glo was purchased from Promega, with a catalog number of G7573; • RPMI 1640 was purchased from Gibco, with a catalog number of 22400089; • FBS was purchased from Gibco, with a catalog number of 10091148; • cell culture plates were purchased from Corning, with a catalog number of 3610.
(§3) The inhibitory activity of the compound on the proliferation of different EGFR C797S drug-resistant mutant cell lines was detected using the Cell Titer-Glo method. The different cell lines were cultured in RPMI 1640 complete culture medium containing 10% FBS under conditions of 37° C. and 5% CO2, the cells were collected by centrifugation when growing to a certain density, and adjusted to appropriate cell density after counting, the cells were spread on a white 96-well plate at 90 μL/well, and cultured in a 37° C., 5% CO2 incubator overnight, prepared compound solutions of different concentrations were added at 10 μL/well, corresponding solvent controls were set, and all wells were cultured in a 37° C., 5% CO2 incubator for 72 hours, 50 μL of CellTiter-Glo solution was added to each well, shook and mixed evenly, and incubated in the dark for 10 minutes, and a BioTek Synergy H1 microplate reader was used for reading.
(§4) The luminescence signal value was used to calculate the inhibition rate. Graphpad Prism software was used to fit the concentration and inhibition rate to a nonlinear regression curve, so as to obtain the IC50 value, as shown in the Table below for details.

[2] = molecular target: Ba/F3 EGFR Del19/C797S cells (Homo sapiens, UniProt P00533, C797S, cells depend on it, form not given); assay: Cell proliferation inhibition (Cell Titer-Glo), Ba/F3 EGFR Del19/C797S; assay type: cell-based, mouse; settings: 72 hours, CellTiter-Glo, read-out: Ba/F3 EGFR Del19/C797S IC50
Ba/F3 EGFR Del19/C797S cells, sequence (P00533 with tags, fused parts or gaps DEL746-750/C797S, form open): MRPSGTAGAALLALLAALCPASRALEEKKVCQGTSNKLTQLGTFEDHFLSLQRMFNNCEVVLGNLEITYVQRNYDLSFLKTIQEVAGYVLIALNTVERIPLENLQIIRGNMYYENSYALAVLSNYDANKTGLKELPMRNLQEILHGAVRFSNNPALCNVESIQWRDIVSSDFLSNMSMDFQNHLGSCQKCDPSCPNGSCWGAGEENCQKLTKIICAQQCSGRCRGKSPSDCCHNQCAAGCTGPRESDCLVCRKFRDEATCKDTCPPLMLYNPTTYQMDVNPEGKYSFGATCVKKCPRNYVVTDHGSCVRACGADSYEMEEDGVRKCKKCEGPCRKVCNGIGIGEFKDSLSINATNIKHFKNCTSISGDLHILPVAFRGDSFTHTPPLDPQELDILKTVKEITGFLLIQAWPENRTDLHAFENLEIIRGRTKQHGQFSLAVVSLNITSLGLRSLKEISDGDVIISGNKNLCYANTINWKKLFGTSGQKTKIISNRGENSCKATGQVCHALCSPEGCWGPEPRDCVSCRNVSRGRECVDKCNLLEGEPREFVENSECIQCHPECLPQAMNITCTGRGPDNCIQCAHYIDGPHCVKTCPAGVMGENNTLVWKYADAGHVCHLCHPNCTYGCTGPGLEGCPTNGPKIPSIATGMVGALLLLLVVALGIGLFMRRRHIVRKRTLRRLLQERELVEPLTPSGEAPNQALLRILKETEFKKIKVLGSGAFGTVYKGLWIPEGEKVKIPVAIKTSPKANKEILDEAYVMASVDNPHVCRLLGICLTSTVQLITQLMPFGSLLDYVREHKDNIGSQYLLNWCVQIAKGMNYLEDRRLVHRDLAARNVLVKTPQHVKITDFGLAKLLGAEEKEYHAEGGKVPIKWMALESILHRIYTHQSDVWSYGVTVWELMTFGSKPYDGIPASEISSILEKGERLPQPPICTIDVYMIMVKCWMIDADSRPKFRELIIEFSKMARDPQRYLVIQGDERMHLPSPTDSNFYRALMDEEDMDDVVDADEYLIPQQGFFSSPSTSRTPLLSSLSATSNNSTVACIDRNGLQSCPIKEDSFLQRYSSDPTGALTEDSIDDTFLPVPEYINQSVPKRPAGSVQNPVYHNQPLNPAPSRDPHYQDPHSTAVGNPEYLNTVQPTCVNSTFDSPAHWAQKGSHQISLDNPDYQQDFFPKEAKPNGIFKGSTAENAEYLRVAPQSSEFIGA
From the text: as §1, §2, §3, §4

[3] = molecular target: Ba/F3 EGFR L858R/T790M/C797S cells (Homo sapiens, UniProt P00533, T790M/C797S/L858R, cells depend on it); assay: Cell proliferation inhibition (Cell Titer-Glo), Ba/F3 EGFR L858R/T790M/C797S; assay type: cell-based, mouse; settings: 72 hours, CellTiter-Glo, read-out: Ba/F3 EGFR L858R_T790M_C797S IC50
Ba/F3 EGFR L858R/T790M/C797S cells, sequence (P00533 whole entry T790M/C797S/L858R): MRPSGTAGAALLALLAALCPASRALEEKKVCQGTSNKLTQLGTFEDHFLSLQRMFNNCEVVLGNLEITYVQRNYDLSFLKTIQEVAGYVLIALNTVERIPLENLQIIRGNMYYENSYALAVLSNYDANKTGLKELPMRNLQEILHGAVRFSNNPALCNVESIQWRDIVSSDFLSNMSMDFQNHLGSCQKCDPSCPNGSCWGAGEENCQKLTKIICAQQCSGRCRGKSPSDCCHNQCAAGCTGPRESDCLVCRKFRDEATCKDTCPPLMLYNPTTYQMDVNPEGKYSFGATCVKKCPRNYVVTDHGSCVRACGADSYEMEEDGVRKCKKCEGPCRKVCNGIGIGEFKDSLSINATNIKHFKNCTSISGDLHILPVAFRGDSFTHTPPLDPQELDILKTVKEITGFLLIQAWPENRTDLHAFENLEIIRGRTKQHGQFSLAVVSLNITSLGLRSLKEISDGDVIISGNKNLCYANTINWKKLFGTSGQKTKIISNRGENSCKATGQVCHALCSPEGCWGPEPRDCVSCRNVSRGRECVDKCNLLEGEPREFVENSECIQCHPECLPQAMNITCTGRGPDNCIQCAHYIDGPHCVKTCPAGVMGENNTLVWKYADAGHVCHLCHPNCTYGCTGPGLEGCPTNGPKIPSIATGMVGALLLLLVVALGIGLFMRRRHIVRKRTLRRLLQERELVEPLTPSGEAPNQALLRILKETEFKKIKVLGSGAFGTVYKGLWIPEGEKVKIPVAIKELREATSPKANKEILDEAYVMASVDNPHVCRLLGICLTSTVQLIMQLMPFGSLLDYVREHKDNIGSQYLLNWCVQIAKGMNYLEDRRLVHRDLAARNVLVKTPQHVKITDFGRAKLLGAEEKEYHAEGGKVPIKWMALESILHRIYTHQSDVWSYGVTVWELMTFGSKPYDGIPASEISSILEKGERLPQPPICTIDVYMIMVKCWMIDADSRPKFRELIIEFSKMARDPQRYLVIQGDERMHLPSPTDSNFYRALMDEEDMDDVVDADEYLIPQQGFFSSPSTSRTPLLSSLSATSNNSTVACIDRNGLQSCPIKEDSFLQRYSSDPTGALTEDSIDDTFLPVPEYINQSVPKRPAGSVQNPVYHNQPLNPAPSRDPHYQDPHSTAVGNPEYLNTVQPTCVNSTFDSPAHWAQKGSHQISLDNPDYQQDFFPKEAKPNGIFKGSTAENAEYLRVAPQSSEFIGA
From the text: as §1, §2, §3, §4

[4] = Rat pharmacokinetic evaluation test; assay type: in vivo; settings: Sprague-Dawley (SD), po, SD rats, male, p.o. 5 mg/kg, plasma
Protocol: SD rats were used as test animals to study the pharmacokinetic behavior of the compounds of the present invention in the rat body (plasma) after oral administration at a dose of 5 mg/kg.
2.2 Experimental Animals: 3 SD Rats/Group, Male, from Shanghai Jiesijie Experimental Animal Co., Ltd., Animal Production License Number (SCXK (Shanghai) 2013-0006 No. 311620400001794).
• Oral administration drug preparation: 20% solutol HS15 in 0.5% MC (methylcellulose)
20 g of a Solutol HS15 solid and 0.5 g of a MC solid powder were weighed and dissolved in 80 mL of purified water, and the mixture was vortexed, mixed until uniform, and subjected to ultrasound treatment to obtain a clear solution of 20% solutol HS15 in 0.5% MC.
The example compound was weighed into a 20 mL glass bottle, the solution was added thereto and the mixture was subjected to ultrasound treatment for 10 minutes to obtain a clear solution with a concentration of 0.5 mg/mL.
3 male SD rats were administered p.o. respectively after the 3 male SD rats were fasted overnight; the p.o. dose was 5 mg/kg and the administration volume was 10 mL/kg.
Blood collection: Before and after administration to rats, 0.2 mL of blood was collected from the jugular vein at 0.25, 0.5, 1, 2, 4, 6, 8 and 24 h, and placed in an EDTA-K2 anticoagulation tube, which was centrifuged at 6000 rpm at 4° C. for 6 min to separate plasma which was stored at −80° C.; the rats were fed 4 h after administration.
1) 160 μL of acetonitrile was added to 40 μL of plasma sample for precipitation, mixed and centrifuged at 3500×g for 5 to 20 min.
2) the treated supernatant solution was taken and subjected to LC/MS/MS to analyze the concentrations of the test compounds. LC/MS/MS analysis instrument: AB Sciex API 4000 Qtrap.
• Liquid phase conditions: Shimadzu LC-20AD pump • Chromatographic column: Agilent ZORBAX XDB-C18 (50×2.1 mm, 3.5 μm) mobile phase: liquid A is 0.1% aqueous formic acid solution, liquid B is acetonitrile • Flow rate: 0.4 mL/min • Elution time: 0-4.0 min, the eluent is as follows:
The main pharmacokinetic parameters were calculated using WinNonlin 6.1.

SMILES	GI50 [1]	GI50 [2]	GI50 [3]	AUC(0-t) [4]	Cmax [4]	half-life [4]
CC(C)c1ccc(N2C[C@H](CS(C)(=O)=O)[C@H]2C)c2cnc(Nc3ccnc(-c4cn(CC(O)CF)nc4Cl)n3)cc12 (stereo partly drawn) [Example 172, 1-(3-chloro-4-(4-((5-isopropyl-8-((2R,3S)-2-methyl-3-((methanesulfonyl)methyl)azetidin-1-yl)isoquinolin-3-yl)amino)pyrimidin-2-yl)-1H-pyrazol-1-yl)-3-fluoropropan-2-ol]	5 nM	33 nM	–	–	–	–
CC(C)c1ccc(N2C[C@H](CS(C)(=O)=O)[C@H]2C)c2cnc(Nc3ccnc(-c4cn(C[C@@H]5CCO5)nc4Cl)n3)cc12 [Example 182, N-(2-(3-chloro-1-(((S)-oxetan-2-yl)methyl)-1H-pyrazol-4-yl)pyrimidin-4-yl)-5-isopropyl-8-((2R,3S)-2-methyl-3-((methanesulfonyl)methyl)azetidin-1-yl)isoquinolin-3-amine]	4.4 nM	–	10 nM	–	–	–
CC(C)c1c(F)cc(N2C[C@H](CS(C)(=O)=O)[C@H]2C)c2cnc(Nc3ccnc(-c4cn(C)nc4Cl)n3)cc12 [Example 120, N-(2-(3-chloro-1-methyl-1H-pyrazol-4-yl)pyrimidin-4-yl)-6-fluoro-5-isopropyl-8-((2R,3S)-2-methyl-3-((methanesulfonyl)methyl)azetidin-1-yl)isoquinolin-3-amine]	7.1 nM	11 nM	14 nM	–	–	–
Cc1nn(C)cc1-c1nccc(Nc2cc3c(C(C)C)c(F)cc(N4C[C@H](CS(C)(=O)=O)[C@H]4C)c3cn2)n1 [Example 125, N-(2-(1,3-dimethyl-1H-pyrazol-4-yl)pyrimidin-4-yl)-6-fluoro-5-isopropyl-8-((2R,3S)-2-methyl-3-((methanesulfonyl)methyl)azetidin-1-yl)isoquinolin-3-amine]	6.8 nM	18 nM	–	–	–	–
[2H]C([2H])([2H])n1cc(-c2nccc(Nc3cc4c(C(C)C)ccc(N5C[C@H](CS(C)(=O)=O)[C@H]5C)c4cn3)n2)c(C)n1 [Example 2, 5-isopropyl-N-(2-(3-methyl-1-(methyl-d3)-1H-pyrazol-4-yl)pyrimidin-4-yl)-8-((2R,3S)-2-methyl-3-((methylsulfonyl)methyl)azetidin-1-yl)isoquinolin-3-amine]	6.2 nM	13 nM	–	–	–	–
[2H]C([2H])([2H])c1nn(C([2H])([2H])[2H])cc1-c1nccc(Nc2cc3c(C(C)C)ccc(N4C[C@H](CS(C)(=O)=O)[C@H]4C)c3cn2)n1 [Example 4, N-(2-(1,3-bis(methyl-d3)-1H-pyrazol-4-yl)pyrimidin-4-yl)-5-isopropyl-8-((2R,3S)-2-methyl-3-((methylsulfonyl)methyl)azabut-1-yl)isoquinolin-3-amine]	7.7 nM	20 nM	–	–	–	–
CC(C)c1c(F)cc(N2C[C@H](N(C)S(C)(=O)=O)[C@H]2C)c2cnc(Nc3ccnc(-c4cn(C)nc4Cl)n3)cc12 [Example 121, N-((2R,3S)-1-(3-((2-(3-chloro-1-methyl-1H-pyrazol-4-yl)pyrimidin-4-yl)amino)-6-fluoro-5-isopropylisoquinolin-8-yl)-2-methylazetidin-3-yl)-N-methyl methanesulfonamide]	4.5 nM	6.2 nM	15 nM	–	–	–

Next, values leading:

GI50 [1]	GI50 [2]	GI50 [3]	AUC(0-t) [4]	Cmax [4]	half-life [4]	SMILES
7.6 nM	33 nM	–	–	–	–	COC(C)Cn1cc(-c2nccc(Nc3cc4c(C(C)C)ccc(N5C[C@H](CS(C)(=O)=O)[C@H]5C)c4cn3)n2)c(Cl)n1 (stereo partly drawn) [Example 116A, N-(2-(3-chloro-1-(2-methoxypropyl)-1H-pyrazol-4-yl)pyrimidin-4-yl)-5-isopropyl-8-((2R,3S)-2-methyl-3-((methanesulfonyl)methyl)azetidin-1-yl)isoquinolin-3-amine]
10 nM	8.4 nM	–	–	–	–	CC(C)c1ccc(N2CC(NS(C)(=O)=O)C2)c2cnc(Nc3ccnc(-c4cn(C)nc4Cl)n3)cc12 [Example 44, N-(1-(3-((2-(3-chloro-1-methyl-1H-pyrazol-4-yl)pyrimidin-4-yl)amino)-5-isopropylisoquinolin-8-yl)azetidin-3-yl)methanesulfonamide]
5.1 nM	5.1 nM	13 nM	–	–	–	[2H]C([2H])([2H])n1cc(-c2nccc(Nc3cc4c(C(C)C)ccc(N5C[C@H](CS(C)(=O)=O)[C@H]5C)c4cn3)n2)c(Cl)n1 [Example 6, N-(2-(3-chloro-1-(methyl-d3)-1H-pyrazol-4-yl)pyrimidin-4-yl)-5-isopropyl-8-((2R,3S)-2-methyl-3-((methylsulfonyl)methyl)azetidin-1-yl)isoquinolin-3-amine]
4 nM	3.2 nM	–	2170 ng·h/mL	186 ng/mL	2.7 h	CC(C)c1ccc(N2CC(N(C)S(C)(=O)=O)C2)c2cnc(Nc3ccnc(-c4cn(C)nc4Cl)n3)cc12 [Example 67, N-(1-(3-((2-(3-chloro-1-methyl-1H-pyrazol-4-yl)pyrimidin-4-yl)amino)-5-isopropylisoquinolin-8-yl)azetidin-3-yl)-N-methyl methanesulfonamide]
4.5 nM	12 nM	–	1410 ng·h/mL	287 ng/mL	2.7 h	Cc1nn(C)cc1-c1nccc(Nc2cc3c(C(C)C)ccc(N4C[C@H](CS(C)(=O)=O)[C@H]4C)c3cn2)n1 [Example 1, N-(2-(1,3-dimethyl-1H-pyrazolyl-4-yl)pyrimidin-4-yl)-5-isopropyl-8-((2R,3S)-2-methyl-3-((methanesulfonyl)methyl)azabut-1-yl)isoquinolin-3-amine]
5.9 nM	2.6 nM	8.8 nM	–	–	–	CC(C)c1c(F)cc(N2C[C@H](NS(C)(=O)=O)[C@H]2C)c2cnc(Nc3ccnc(-c4cn(C)nc4Cl)n3)cc12 [Example 186, N-((2R,3S)-1-(3-((2-(3-chloro-1-methyl-1H-pyrazol-4-yl)pyrimidin-4-yl)amino)-6-fluoro-5-isopropylisoquinolin-8-yl)-2-methylazetidin-3-yl)methanesulfonamide]
3.3 nM	6.5 nM	13 nM	–	–	–	CC(C)c1ccc(N2C[C@H](NS(C)(=O)=O)[C@H]2C)c2cnc(Nc3ccnc(-c4cn(C)nc4Cl)n3)cc12 [Example 123, N-((2R,3S)-1-(3-((2-(3-chloro-1-methyl-1H-pyrazol-4-yl)pyrimidin-4-yl)amino)-5-isopropylisoquinolin-8-yl)-2-methylazetidin-3-yl)methanesulfonamide]
